In paper PMC9572521, “Synthesis, Docking Studies and Pharmacological Evaluation of Serotoninergic Ligands Containing a 5-Norbornene-2-Carboxamide Nucleus” (Molecules, 2022):
Read-outs that look alike come from different tables or passages of the source.

How the values were obtained:
human 5-HT2C receptor = molecular target: T1, human 5-HT2C receptor (Homo sapiens, UniProt P28335); experiment: 5-HT2C competition binding assay ([3H]mesulergine, transfected cell membranes)
T1 sequence (P28335 33-458): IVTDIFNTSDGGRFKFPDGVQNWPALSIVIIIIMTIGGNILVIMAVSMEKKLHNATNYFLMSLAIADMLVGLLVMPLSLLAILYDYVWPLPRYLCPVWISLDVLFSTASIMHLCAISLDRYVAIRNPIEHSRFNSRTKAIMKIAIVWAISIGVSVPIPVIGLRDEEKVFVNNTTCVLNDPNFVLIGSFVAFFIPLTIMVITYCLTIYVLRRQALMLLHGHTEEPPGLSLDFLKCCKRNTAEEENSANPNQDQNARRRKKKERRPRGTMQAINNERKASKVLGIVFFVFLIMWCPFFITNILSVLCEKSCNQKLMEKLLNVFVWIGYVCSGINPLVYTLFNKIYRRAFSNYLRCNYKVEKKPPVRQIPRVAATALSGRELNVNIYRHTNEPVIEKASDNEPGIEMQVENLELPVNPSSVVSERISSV

5-HT2A receptor = 5-HT2A receptor (Rattus norvegicus, UniProt P14842); experiment: 5-HT2A competition binding assay ([3H]ketanserin, frontal cortex homogenates)
Chain of 5-HT2A receptor (P14842 whole entry): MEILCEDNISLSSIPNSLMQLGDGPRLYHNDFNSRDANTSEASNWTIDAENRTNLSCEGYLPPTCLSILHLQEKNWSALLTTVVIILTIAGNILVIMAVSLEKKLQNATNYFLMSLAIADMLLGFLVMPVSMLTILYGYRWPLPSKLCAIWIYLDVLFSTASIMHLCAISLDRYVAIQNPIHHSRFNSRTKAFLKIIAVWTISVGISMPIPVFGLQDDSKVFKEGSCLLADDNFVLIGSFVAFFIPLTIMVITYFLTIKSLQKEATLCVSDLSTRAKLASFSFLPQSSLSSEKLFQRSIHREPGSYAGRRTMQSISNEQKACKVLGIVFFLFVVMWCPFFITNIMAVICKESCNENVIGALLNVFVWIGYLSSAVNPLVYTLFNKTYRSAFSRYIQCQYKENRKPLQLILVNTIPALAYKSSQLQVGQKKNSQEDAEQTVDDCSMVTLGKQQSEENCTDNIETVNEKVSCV

D2 receptor = molecular target: T2, D2 receptor (Rattus norvegicus, UniProt P61169); experiment: Functional D2 receptor [35S]GTPγS assay (antagonist mode vs dopamine; basal for agonism); assay type: biochemical; conditions: against 40 µM dopamine, rat striatal homogenate;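 note: [35S]GTPγS binding counted by scintillation after 60 min at 30 °C, nonspecific binding defined with 100 µM unlabeled GTPγS, inhibition curves fitted by one-site nonlinear regression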
T2 construct: 15μg/mL of striatal homogenate was incubated in triplicate; from tissue; host or cells: rat striatum homogenate
T2 sequence (P61169 whole entry): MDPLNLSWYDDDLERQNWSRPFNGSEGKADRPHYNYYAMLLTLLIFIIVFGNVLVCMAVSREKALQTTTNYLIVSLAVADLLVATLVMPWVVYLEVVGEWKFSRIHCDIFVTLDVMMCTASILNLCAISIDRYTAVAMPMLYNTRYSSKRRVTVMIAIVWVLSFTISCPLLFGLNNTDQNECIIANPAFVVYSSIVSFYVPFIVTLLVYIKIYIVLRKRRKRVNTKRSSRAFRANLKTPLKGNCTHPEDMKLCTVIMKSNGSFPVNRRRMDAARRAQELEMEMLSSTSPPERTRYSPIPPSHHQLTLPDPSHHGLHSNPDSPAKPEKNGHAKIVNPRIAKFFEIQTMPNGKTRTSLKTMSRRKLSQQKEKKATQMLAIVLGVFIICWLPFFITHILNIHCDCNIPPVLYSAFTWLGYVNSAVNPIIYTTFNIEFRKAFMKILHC

5-HT1A receptor = molecular target: T3, 5-HT1A receptor (Rattus norvegicus, UniProt P19327); experiment: Functional 5-HT1A receptor [35S]GTPγS assay (agonist mode); assay type: biochemical; conditions: for Emax: read-out: 5-HT1A Receptor G-Protein Stimulation Emax (%) ± SEM;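 for all read-outs here: male Sprague-Dawley rat hippocampal membranes incubated 90 min at 37 °C, bound label counted by scintillation after filtration, non-specific binding defined with 100 µM unlabeled GTPγS, one-site curve fit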
T3 construct: 15 μg/mL of hippocampus homogenate was incubated in triplicate with 0.8 nM; from tissue; host or cells: rat hippocampus homogenate
T3 sequence (P19327 1-422): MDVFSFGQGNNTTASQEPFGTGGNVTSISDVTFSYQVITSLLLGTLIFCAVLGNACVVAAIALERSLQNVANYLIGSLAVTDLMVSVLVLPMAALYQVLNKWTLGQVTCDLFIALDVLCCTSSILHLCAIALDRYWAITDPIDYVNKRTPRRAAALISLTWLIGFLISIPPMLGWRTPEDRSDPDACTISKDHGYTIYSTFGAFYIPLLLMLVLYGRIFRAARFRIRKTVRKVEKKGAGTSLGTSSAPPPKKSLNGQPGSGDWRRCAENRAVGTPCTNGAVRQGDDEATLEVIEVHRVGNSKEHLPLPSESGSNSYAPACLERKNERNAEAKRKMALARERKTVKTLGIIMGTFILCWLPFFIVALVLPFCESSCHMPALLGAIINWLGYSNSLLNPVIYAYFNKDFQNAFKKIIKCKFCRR

[1] = [3H]mesulergine, human 5-HT2C membranes, read-out: 5-HT2C Ki (95% CI)
[2] = read-out: D2 receptor antagonistic activity IC50 (95% CI)
[3] = read-out: D2 receptor antagonistic activity pIC50 (M ± SEM) (converted)
[4] = [35S]GTPγS, rat hippocampus homogenate, read-out: 5-HT1A Receptor G-Protein Stimulation EC50 (95% CI)
[5] = [35S]GTPγS, rat hippocampus homogenate
[6] = [3H]mesulergine, human 5-HT2C membranes, ± SEM, read-out: 5-HT2C pKi (converted)
[7] = [35S]GTPγS, rat hippocampus homogenate, ± SEM
[8] = ± SEM, read-out: 5-HT2A pKi (converted)

Compound	Ki (human 5-HT2C receptor; [1]) [nM]	Ki (5-HT2A receptor; read-out: 5-HT2A Ki (95% CI)) [nM]	IC50 (D2 receptor; [2]) [nM]	EC50 (5-HT1A receptor; [4]) [nM]	Emax (5-HT1A receptor; [5]) [%]	5-HT1A Receptor G-Protein Stimulation Emax (%) ± SEM (5-HT1A receptor; [5])	other results
COc1ccccc1N1CCN(CCCNC(=O)C2CC3C=CC2C3)CC1 (single isomer, unassigned) [Norbo-6, endo-N-(3-(4-(2-methoxyphenyl)piperazin-1-yl)propyl)bicyclo[2.2.1]hept-5-ene-2-carboxamide]	1030	88.7	59500	3220	131 ± 5.5		IC50 (D2 receptor; [3]): 60300 nM
CCCN(CCC)C1CCc2cccc(O)c2C1 (stereo not shown) [Norbo 8-OH-DPAT, reference compound]							Emax (5-HT1A receptor): 154 ± 2.3%
O=C(NCCCN1CCN(c2ccccc2)CC1)C1CC2C=CC1C2 (stereo not drawn) [Norbo-1, Exo-N-(3-(4-phenylpiperazin-1-yl)propyl)bicyclo[2.2.1]hept-5-ene-2-carboxamide]	3890	74	101000	1200	174 ± 4.15		
O=C(NCCCN1CCN(c2ccccc2)CC1)C1CC2C=CC1C2 (stereo not drawn) [Norbo-2, endo-N-(3-(4-phenylpiperazin-1-yl)propyl)bicyclo[2.2.1]hept-5-ene-2-carboxamide]	1610	99.1	106000	1630		188 ± 4.9 %	EC50 (5-HT1A receptor; [35S]GTPγS, rat hippocampus homogenate, ± SEM, read-out: 5-HT1A Receptor G-Protein Stimulation pEC50 (converted)): 1660 nM
Cc1cccc(N2CCN(CCCNC(=O)C3CC4C=CC3C4)CC2)c1C (stereo not drawn) [Norbo-3, Exo-N-(3-(4-(2,3-dimethylphenyl)piperazin-1-yl)propyl)bicyclo[2.2.1]hept-5-ene-2-carboxamide]	250	23.5	71000	177	185 ± 3.2		
COc1ccc(N2CCN(CCCNC(=O)C3CC4C=CC3C4)CC2)cc1 (stereo not drawn) [Norbo-7, Exo-N-(3-(4-(4-methoxyphenyl)piperazin-1-yl)propyl)bicyclo[2.2.1]hept-5-ene-2-carboxamide]	51.3	105	51500	348	169 ± 3.5		
COc1ccc(N2CCN(CCCNC(=O)C3CC4C=CC3C4)CC2)cc1 (stereo not drawn) [Norbo-8, endo-N-(3-(4-(4-methoxyphenyl)piperazin-1-yl)propyl) bicyclo[2.2.1]hept-5-ene-2-carboxamide]	398	127	60400	165		167 ± 2.3 %	
O=C(NCCCN1CCN(c2ccccc2Cl)CC1)C1CC2C=CC1C2 (stereo not drawn) [Norbo-9, Exo-N-(3-(4-(2-chlorophenyl)piperazin-1-yl)propyl) bicyclo[2.2.1]hept-5-ene-2-carboxamide]	2790	109	20100	207	149 ± 3.1		IC50 (D2 receptor; [3]): 20400 nM
O=C(NCCCN1CCN(c2ccccc2Cl)CC1)C1CC2C=CC1C2 (stereo not drawn) [Norbo-10, endo-N-(3-(4-(2-chlorophenyl)piperazin-1-yl)propyl)bicyclo[2.2.1]hept-5-ene-2-carboxamide]	< 40	254	21500	198		163 ± 2.4 %	Ki (human 5-HT2C receptor; [6]): 13.5 nM
O=C(NCCCN1CCN(c2ccc(Cl)cc2)CC1)C1CC2C=CC1C2 (stereo not drawn) [Norbo-11, Exo-N-(3-(4-(4-chlorophenyl)piperazin-1-yl)propyl)bicyclo[2.2.1]hept-5-ene-2-carboxamide]	< 40	149	31200			no activity	Ki (human 5-HT2C receptor; [6]): 30.9 nM; IC50 (D2 receptor; [3]): 31600 nM; 5-HT1A Receptor G-Protein Stimulation EC50 (95% CI, nM) (5-HT1A receptor; [5]): no activity; 5-HT1A Receptor G-Protein Stimulation pEC50 (5-HT1A receptor; [7]): no activity
O=C(NCCCN1CCN(c2ccc(Cl)cc2)CC1)C1CC2C=CC1C2 (stereo not drawn) [Norbo-12, endo-N-(3-(4-(4-chlorophenyl)piperazin-1-yl)propyl)bicyclo[2.2.1]hept-5-ene-2-carboxamide]	34900	227	100000	1870	127 ± 5.1		IC50 (D2 receptor; [3]): 102000 nM
O=C(NCCCN1CCN(c2ccc(Cl)c(Cl)c2)CC1)C1CC2C=CC1C2 (stereo not drawn) [Norbo-13, Exo-N-(3-(4-(3,4-dichlorophenyl)piperazin-1-yl)propyl)bicyclo[2.2.1]hept-5-ene-2-carboxamide]	122	28.8	68900			no activity	5-HT1A Receptor G-Protein Stimulation EC50 (95% CI, nM) (5-HT1A receptor; [5]): no activity; 5-HT1A Receptor G-Protein Stimulation pEC50 (5-HT1A receptor; [7]): no activity
O=C(NCCCN1CCN(c2ccccc2F)CC1)C1CC2C=CC1C2 (stereo not drawn) [Norbo-15, Exo-N-(3-(4-(2-fluorophenyl)piperazin-1-yl)propyl)bicyclo[2.2.1]hept-5-ene-2-carboxamide]	31	82.6	62700	926		161 ± 4.5%	Ki (human 5-HT2C receptor; [6]): 31.6 nM
O=C(NCCCN1CCN(c2ccccn2)CC1)C1CC2C=CC1C2 (stereo not drawn) [Norbo-21, Exo-N-(3-(4-(pyridin-2-yl)piperazin-1-yl)propyl)bicyclo[2.2.1]hept-5-ene-2-carboxamide]	1340	258	181000	588	181 ± 2.5		
O=C(NCCCN1CCN(c2ccccn2)CC1)C1CC2C=CC1C2 (stereo not drawn) [Norbo-22, endo-N-(3-(4-(pyridin-2-yl)piperazin-1-yl)propyl)bicyclo[2.2.1]hept-5-ene-2-carboxamide]	873		125000	782		186 ± 4.4 %	Ki (5-HT2A receptor; [8]): 355 nM
O=C(NCCCN1CCN(c2ncccn2)CC1)C1CC2C=CC1C2 (stereo not drawn) [Norbo-23, Exo-N-(3-(4-(pyrimidin-2-yl)piperazin-1-yl)propyl)bicyclo[2.2.1]hept-5-ene-2-carboxamide]	353	1080	255000	2400	181 ± 4.1		
O=C(NCCCN1CCN(c2ncccn2)CC1)C1CC2C=CC1C2 (stereo not drawn) [Norbo-24, endo-N-(3-(4-(pyrimidin-2-yl)piperazin-1-yl)propyl)bicyclo[2.2.1]hept-5-ene-2-carboxamide]	211		206000	1720		177 ± 6.1 %	Ki (human 5-HT2C receptor; [6]): 214 nM; Ki (5-HT2A receptor; [8]): 1380 nM
O=C(NCCCN1CCN(Cc2ccc3c(c2)OCO3)CC1)C1CC2C=CC1C2 (stereo not drawn) [Norbo-25, Exo-N-(3-(4-(benzo[d][1,3]dioxol-5-ylmethyl)piperazin-1-yl)propyl)bicyclo[2.2.1]hept-5-ene-2-carboxamide]	1050			1910	184 ± 6.4		Ki (5-HT2A receptor; [8]): 372 nM; D2 receptor antagonistic activity IC50 (95% CI, µM) (D2 receptor): no activity; D2 receptor antagonistic activity pIC50 (M ± SEM) (D2 receptor): no activity
O=C(NCCCN1CCN(Cc2ccc3c(c2)OCO3)CC1)C1CC2C=CC1C2 (stereo not drawn) [Norbo-26, endo-N-(3-(4-(benzo[d][1,3]dioxol-5-ylmethyl)piperazin-1-yl)propyl)bicyclo[2.2.1]hept-5-ene-2-carboxamide]		584		7500		178 ± 22.6 %	Ki (human 5-HT2C receptor; [6]): 2290 nM; D2 receptor antagonistic activity IC50 (95% CI, µM) (D2 receptor): no activity; D2 receptor antagonistic activity pIC50 (M ± SEM) (D2 receptor): no activity
COc1cc(OC)c(C(=O)CCCCN2CCC3(CC2)NC(=O)NC3=O)cc1NS(=O)(=O)c1ccc(C(F)(F)F)cc1 [RS102221, reference compound]							5-HT2C pKi (human 5-HT2C receptor): 8.25 ± 0.21; Ki (human 5-HT2C receptor; read-out: 5-HT2C Ki (95% CI)): 5.56 nM
